# Test system: Dopamine (e.g., D2/D3)
# Assay: Dopamine RO % by raclopride PET after LB-102, various dosage regimens (Example 3)
# Format: in vivo, human
# Conditions: for Dopamine RO % (Caudate + Putamen): group mean
# Procedure: Healthy subjects were dosed orally with LB102 of 50 mg QD (n=4), 75 mg QD (n=4), 100 mg QD (n=4), 50 mg SS (n=2), or 100 mg SS (n=2). Subjects were, on average, 33 years old. Subjects dosed QD were given a single dose on day 1 after which PET scans were obtained; and subjects dosed SS, i.e., steady state, were dosed once a day for 4 days and PET scans were obtained after dosing on Day 4.
# Dynamic […] raclopride PET scans were obtained 0 h, 2.5 h, 7.5 h, and 23.5 h after LB-102 administration for the 50 mg and 100 mg QD treatment groups and after LB-102 administration of Day 4 for the 50 mg SS and 100 mg SS treatment groups; and 0 h, 3.5 h, 23.5 h, and 47.5 h after LB-102 administration for the 75 mg QD treatment group. Dopamine % RO were calculated using the STRM method (https://pubmed.ncbi.nlm.nih.gov/9345505/, which is incorporated herein by reference) and the combined RO % (average of caudate and putamen RO %) are shown as squares FIGS. 5A (50 mg QD), 5B (75 mg QD), 5C (100 mg QD); and FIGS. 6A (50 mg SS Day 4) and 6B (100 mg SS Day 4); and summarized in Table 3-A below.
# Dynamic ^11C raclopride PET scan results for calculation of dopamine RO % were measured in caudate, putamen, thalamus, and temporal lobe of each subject tested, and are summarized in Tables 3-B to 3-F below.
# [1] = 75 mg QD, Subject 3, 3.5 h after LB-102 admin.
# [2] = 75 mg QD, Subject 3, 23.5 h after LB-102 admin.
# [3] = 75 mg QD, Subject 3, 47.5 h after LB-102 admin.
# [4] = 75 mg QD, Subject 4, 3.5 h after LB-102 admin.
# [5] = 75 mg QD, Subject 4, 23.5 h after LB-102 admin.
# [6] = 75 mg QD, Subject 4, 47.5 h after LB-102 admin.
# [7] = 100 mg QD, Subject 1, 2.5 h after LB-102 admin.
# [8] = 100 mg QD, Subject 1, 7.5 h after LB-102 admin.
# [9] = 100 mg QD, Subject 1, 23.5 h after LB-102 admin.
# [10] = 100 mg QD, Subject 2, 2.5 h after LB-102 admin.
# [11] = 100 mg QD, Subject 2, 7.5 h after LB-102 admin.
# [12] = 100 mg QD, Subject 2, 23.5 h after LB-102 admin.
# [13] = 100 mg QD, Subject 3, 2.5 h after LB-102 admin.
# [14] = 100 mg QD, Subject 3, 7.5 h after LB-102 admin.
# [15] = 100 mg QD, Subject 3, 23.5 h after LB-102 admin.
# [16] = 100 mg QD, Subject 4, 2.5 h after LB-102 admin.
# [17] = 100 mg QD, Subject 4, 7.5 h after LB-102 admin.
# [18] = 100 mg QD, Subject 4, 23.5 h after LB-102 admin.
# [19] = 100 mg SS (Day 4), Subject 3, ~3 h after LB-102 admin.
# [20] = 100 mg SS (Day 4), Subject 3, ~8 h after LB-102 admin.
# [21] = 100 mg SS (Day 4), Subject 3, ~24 h after LB-102 admin.
# [22] = 100 mg SS (Day 4), Subject 4, ~3 h after LB-102 admin.
# [23] = 100 mg SS (Day 4), Subject 4, ~8 h after LB-102 admin.
# [24] = 100 mg SS (Day 4), Subject 4, ~24 h after LB-102 admin.
structure (smiles),measurement,setting,value
CCN1CCCC1CNC(=O)c1cc(S(=O)(=O)CC)c(NC)cc1OC (stereo not shown) [LB-102],Dopamine RO % Putamen,[1],50%
same,Dopamine RO % Temporal lobe,[1],28%
same,Dopamine RO % Thalamus,[1],37%
same,Dopamine RO % Caudate,[2],69%
same,Dopamine RO % Putamen,[2],53%
same,Dopamine RO % Temporal lobe,[2],20%
same,Dopamine RO % Thalamus,[2],36%
same,Dopamine RO % Caudate,[3],52%
same,Dopamine RO % Putamen,[3],38%
same,Dopamine RO % Temporal lobe,[3],16%
same,Dopamine RO % Thalamus,[3],20%
same,Dopamine RO % Caudate,[4],5%
same,Dopamine RO % Putamen,[4],2%
same,Dopamine RO % Temporal lobe,[4],−2%
same,Dopamine RO % Thalamus,[4],5%
same,Dopamine RO % Caudate,[5],48%
same,Dopamine RO % Putamen,[5],37%
same,Dopamine RO % Temporal lobe,[5],27%
same,Dopamine RO % Thalamus,[5],21%
same,Dopamine RO % Caudate,[6],13%
same,Dopamine RO % Putamen,[6],12%
same,Dopamine RO % Temporal lobe,[6],−6%
same,Dopamine RO % Thalamus,[6],−25%
same,Dopamine RO % (Caudate + Putamen),"100 mg QD, 0 h after LB-102 administration",0%
same,Dopamine RO % (Caudate + Putamen),"100 mg QD, 3 h after LB-102 administration",41%
same,Dopamine RO % (Caudate + Putamen),"100 mg QD, 8 h after LB-102 administration",70%
same,Dopamine RO % (Caudate + Putamen),"100 mg QD, 24 h after LB-102 administration",69%
same,Dopamine RO % Caudate,[7],39%
same,Dopamine RO % Putamen,[7],32%
same,Dopamine RO % Temporal lobe,[7],18%
same,Dopamine RO % Thalamus,[7],28%
same,Dopamine RO % Caudate,[8],75%
same,Dopamine RO % Putamen,[8],67%
same,Dopamine RO % Temporal lobe,[8],24%
same,Dopamine RO % Thalamus,[8],40%
same,Dopamine RO % Caudate,[9],76%
same,Dopamine RO % Putamen,[9],68%
same,Dopamine RO % Temporal lobe,[9],13%
same,Dopamine RO % Thalamus,[9],26%
same,Dopamine RO % Caudate,[10],56%
same,Dopamine RO % Putamen,[10],52%
same,Dopamine RO % Temporal lobe,[10],17%
same,Dopamine RO % Thalamus,[10],42%
same,Dopamine RO % Caudate,[11],78%
same,Dopamine RO % Putamen,[11],75%
same,Dopamine RO % Temporal lobe,[11],17%
same,Dopamine RO % Thalamus,[11],49%
same,Dopamine RO % Caudate,[12],72%
same,Dopamine RO % Putamen,[12],66%
same,Dopamine RO % Temporal lobe,[12],22%
same,Dopamine RO % Thalamus,[12],43%
same,Dopamine RO % Caudate,[13],50%
same,Dopamine RO % Putamen,[13],46%
same,Dopamine RO % Temporal lobe,[13],20%
same,Dopamine RO % Thalamus,[13],34%
same,Dopamine RO % Caudate,[14],84%
same,Dopamine RO % Putamen,[14],77%
same,Dopamine RO % Temporal lobe,[14],24%
same,Dopamine RO % Thalamus,[14],46%
same,Dopamine RO % Caudate,[15],76%
same,Dopamine RO % Putamen,[15],69%
same,Dopamine RO % Temporal lobe,[15],22%
same,Dopamine RO % Thalamus,[15],39%
same,Dopamine RO % Caudate,[16],26%
same,Dopamine RO % Putamen,[16],25%
same,Dopamine RO % Temporal lobe,[16],10%
same,Dopamine RO % Thalamus,[16],31%
same,Dopamine RO % Caudate,[17],55%
same,Dopamine RO % Putamen,[17],49%
same,Dopamine RO % Temporal lobe,[17],15%
same,Dopamine RO % Thalamus,[17],49%
same,Dopamine RO % Caudate,[18],68%
same,Dopamine RO % Putamen,[18],56%
same,Dopamine RO % Temporal lobe,[18],15%
same,Dopamine RO % Thalamus,[18],39%
same,Dopamine RO % Caudate,[19],84%
same,Dopamine RO % Putamen,[19],80%
same,Dopamine RO % Temporal lobe,[19],19%
same,Dopamine RO % Thalamus,[19],50%
same,Dopamine RO % Caudate,[20],86%
same,Dopamine RO % Putamen,[20],83%
same,Dopamine RO % Temporal lobe,[20],18%
same,Dopamine RO % Thalamus,[20],51%
same,Dopamine RO % Caudate,[21],80%
same,Dopamine RO % Putamen,[21],73%
same,Dopamine RO % Temporal lobe,[21],23%
same,Dopamine RO % Thalamus,[21],48%
same,Dopamine RO % Caudate,[22],88%
same,Dopamine RO % Putamen,[22],79%
same,Dopamine RO % Temporal lobe,[22],32%
same,Dopamine RO % Thalamus,[22],78%
same,Dopamine RO % Caudate,[23],89%
same,Dopamine RO % Putamen,[23],80%
same,Dopamine RO % Temporal lobe,[23],25%
same,Dopamine RO % Thalamus,[23],80%
same,Dopamine RO % Caudate,[24],83%
same,Dopamine RO % Putamen,[24],72%
same,Dopamine RO % Temporal lobe,[24],31%
same,Dopamine RO % Thalamus,[24],69%
same,Dopamine RO % (Caudate + Putamen),"100 mg SS (once a day for 4 days), 3 h after Day 4 administration",88%
same,Dopamine RO % (Caudate + Putamen),"100 mg SS (once a day for 4 days), 8 h after Day 4 administration",82%
same,Dopamine RO % (Caudate + Putamen),"100 mg SS (once a day for 4 days), 24 h after Day 4 administration",76%
same,dopamine RO after plasma concentration dropped,after combined plasma concentration of LB-102 and amisulpride dropped sub 10 ng/mL,persisted significantly

# Reference: patent US20240115547A1, “PSYCHOTROPIC AGENTS AND USES THEREOF” (LB PHARMACEUTICALS INC., priority 2021, published 2024)
